Results from ChEMBL document CHEMBL4376815, “The Development Process for Discovery and Clinical Advancement of Modern Antimalarials” (J Med Chem, 2019).

Key:
[1] = Tmax in human at […], po and measured up to 96 to 144 hrs by LC-MS/MS analysis; type: ADME, organism-based; settings: in vivo
Plasmodium falciparum [2] = assay: Antimalarial activity against Plasmodium falciparum 3D7 infected in human erythrocytes assessed as reduction in [3H]-hypoxanthine incorporation incubated for 48 hrs followed by addition of [3H]-hypoxanthine and measured after 24 hrs by liquid scintillation counting method; type: functional, organism-based
[3] = Oral bioavailability in mouse at 24.6 mg/kg and measured up to 24 hrs by LC/MS analysis; type: ADME, organism-based; settings: in vivo
[4] = AUC (infinity) in rat at 23.7 mg/kg, po and measured up to 24 hrs by LC/MS analysis; type: ADME, organism-based; design: dose 23.7 mg/kg, route oral, time infinity; settings: in vivo
[5] = Oral bioavailability in rat at 23.7 mg/kg and measured up to 24 hrs by LC/MS analysis; type: ADME, organism-based; settings: in vivo
Plasmodium falciparum [6] = assay: Antimalarial activity against Plasmodium falciparum NF54 infected in human erythrocytes assessed as reduction in [3H]-hypoxanthine incorporation incubated for 48 hrs followed by addition of [3H]-hypoxanthine and measured after 24 hrs by liquid scintillation counting method; type: functional, organism-based
Plasmodium falciparum [7] = assay: Antimalarial activity against Plasmodium falciparum K1 infected in human erythrocytes assessed as reduction in [3H]-hypoxanthine incorporation incubated for 48 hrs followed by addition of [3H]-hypoxanthine and measured after 24 hrs by liquid scintillation counting method; type: functional, organism-based
Plasmodium falciparum [8] = assay: Antimalarial activity against Plasmodium falciparum W2 infected in human erythrocytes assessed as reduction in [3H]-hypoxanthine incorporation incubated for 48 hrs followed by addition of [3H]-hypoxanthine and measured after 24 hrs by liquid scintillation counting method; type: functional, organism-based
Plasmodium falciparum [9] = assay: Antimalarial activity against Plasmodium falciparum 7G8 infected in human erythrocytes assessed as reduction in [3H]-hypoxanthine incorporation incubated for 48 hrs followed by addition of [3H]-hypoxanthine and measured after 24 hrs by liquid scintillation counting method; type: functional, organism-based
Plasmodium falciparum [10] = assay: Antimalarial activity against Plasmodium falciparum TM91C235 infected in human erythrocytes assessed as reduction in [3H]-hypoxanthine incorporation incubated for 48 hrs followed by addition of [3H]-hypoxanthine and measured after 24 hrs by liquid scintillation counting method; type: functional, organism-based
Plasmodium falciparum [11] = assay: Antimalarial activity against Plasmodium falciparum D6 infected in human erythrocytes assessed as reduction in [3H]-hypoxanthine incorporation incubated for 48 hrs followed by addition of [3H]-hypoxanthine and measured after 24 hrs by liquid scintillation counting method; type: functional, organism-based
Plasmodium falciparum [12] = assay: Antimalarial activity against Plasmodium falciparum V1/S infected in human erythrocytes assessed as reduction in [3H]-hypoxanthine incorporation incubated for 48 hrs followed by addition of [3H]-hypoxanthine and measured after 24 hrs by liquid scintillation counting method; type: functional, organism-based
Plasmodium berghei [13] = assay: Antimalarial activity against Plasmodium berghei infected in NMRI mouse assessed as reduction in parasite growth at 5.3 mg/kg, po administered daily for 3 consecutive days by flow cytometric analysis relative to control; type: functional; design: scale not given: the % may be the effect or the level left
Plasmodium berghei [14] = assay: Antimalarial activity against Plasmodium berghei infected in NMRI mouse assessed as reduction in parasite growth at 10 mg/kg, po administered daily for 3 consecutive days by flow cytometric analysis relative to control; type: functional; design: scale not given: the % may be the effect or the level left
Plasmodium berghei [15] = assay: Antimalarial activity against Plasmodium berghei infected in NMRI mouse assessed as reduction in parasite growth at 30 mg/kg, po administered daily for 3 consecutive days by flow cytometric analysis relative to control; type: functional; design: scale not given: the % may be the effect or the level left
Plasmodium berghei [16] = assay: Antimalarial activity against Plasmodium berghei infected in NMRI mouse assessed as reduction in parasite growth at 50 mg/kg, po administered daily for 3 consecutive days by flow cytometric analysis relative to control; type: functional; design: scale not given: the % may be the effect or the level left
Plasmodium berghei [17] = assay: Antimalarial activity against Plasmodium berghei infected in NMRI mouse assessed as mean survival days at 30 mg/kg, po administered once and measured up to 30 days; type: functional
[18] = Clearance in Wistar Hannover rat at 5 mg/kg, iv by LC-MS/MS analysis; type: ADME, organism-based; settings: in vivo
[19] = Clearance in Beagle dog at 1 mg/kg, iv by LC-MS/MS analysis; type: ADME, organism-based, Canis lupus familiaris; settings: in vivo
[20] = Volume of distribution in Wistar Hannover rat at 5 mg/kg, iv by LC-MS/MS analysis; type: ADME, organism-based; settings: in vivo
[21] = Half life in Wistar Hannover rat at 5 mg/kg, iv by LC-MS/MS analysis; settings: in vivo
[22] = Half life in Beagle dog at 1 mg/kg, iv by LC-MS/MS analysis; settings: in vivo
[23] = Cmax in Beagle dog at 3 mg/kg, po by LC-MS/MS analysis; type: ADME, organism-based, Canis lupus familiaris; design: dose 3 mg/kg, route oral; settings: in vivo
[24] = Tmax in Wistar Hannover rat at 10 mg/kg, po by LC-MS/MS analysis; type: ADME, organism-based; settings: in vivo
[25] = Tmax in Beagle dog at 3 mg/kg, po by LC-MS/MS analysis; type: ADME, organism-based, Canis lupus familiaris; settings: in vivo
[26] = Oral bioavailability in Wistar Hannover rat at 10 mg/kg by LC-MS/MS analysis; type: ADME, organism-based; settings: in vivo
[27] = Oral bioavailability in Beagle dog at 3 mg/kg by LC-MS/MS analysis; type: ADME, organism-based, Canis lupus familiaris; settings: in vivo
[28] = Cytotoxicity against human HepG2 cells assessed as reduction in cell viability after 4 days by XTT assay; type: cell-based
[29] = target: Voltage-gated inwardly rectifying potassium channel KCNH2 (Homo sapiens, UniProt Q12809); assay: Inhibition of human ERG by patch clamp method
Chain of Voltage-gated inwardly rectifying potassium channel KCNH2 (Q12809 whole entry): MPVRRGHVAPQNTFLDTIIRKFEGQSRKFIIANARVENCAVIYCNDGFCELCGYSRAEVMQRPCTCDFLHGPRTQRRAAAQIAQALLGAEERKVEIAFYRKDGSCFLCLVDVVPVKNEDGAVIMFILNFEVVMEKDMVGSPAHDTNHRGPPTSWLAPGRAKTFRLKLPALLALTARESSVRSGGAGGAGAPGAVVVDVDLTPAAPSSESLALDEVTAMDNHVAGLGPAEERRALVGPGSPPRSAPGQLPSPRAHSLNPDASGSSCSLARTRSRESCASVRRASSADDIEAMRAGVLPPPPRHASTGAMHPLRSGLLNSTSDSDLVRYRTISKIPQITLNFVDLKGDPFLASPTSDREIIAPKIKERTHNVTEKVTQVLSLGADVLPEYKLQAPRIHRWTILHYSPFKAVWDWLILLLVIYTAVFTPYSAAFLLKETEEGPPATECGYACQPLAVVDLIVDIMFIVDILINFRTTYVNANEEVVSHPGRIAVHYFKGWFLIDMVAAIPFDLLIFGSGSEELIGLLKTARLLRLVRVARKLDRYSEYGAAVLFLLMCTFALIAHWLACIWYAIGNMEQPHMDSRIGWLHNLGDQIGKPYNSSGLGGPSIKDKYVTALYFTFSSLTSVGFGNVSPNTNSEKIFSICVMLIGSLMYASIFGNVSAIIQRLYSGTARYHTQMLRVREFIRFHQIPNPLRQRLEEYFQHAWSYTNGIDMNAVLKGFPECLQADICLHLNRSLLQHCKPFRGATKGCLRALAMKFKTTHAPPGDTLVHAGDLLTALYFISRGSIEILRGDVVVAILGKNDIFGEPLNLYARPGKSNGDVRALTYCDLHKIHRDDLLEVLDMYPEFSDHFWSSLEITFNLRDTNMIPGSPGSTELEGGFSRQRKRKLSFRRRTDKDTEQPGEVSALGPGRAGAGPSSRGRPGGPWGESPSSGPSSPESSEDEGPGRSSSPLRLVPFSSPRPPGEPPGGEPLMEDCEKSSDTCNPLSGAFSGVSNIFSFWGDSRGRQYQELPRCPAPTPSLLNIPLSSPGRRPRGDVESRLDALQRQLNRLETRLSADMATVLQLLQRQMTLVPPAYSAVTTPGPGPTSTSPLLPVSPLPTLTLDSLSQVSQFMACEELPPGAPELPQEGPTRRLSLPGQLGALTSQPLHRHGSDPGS

[30] = Metabolic stability in human assessed as paren compound remaining at […], po by LC-MS/MS analysis; type: ADME, organism-based; settings: in vivo
[31] = Plasma protein binding in human; type: ADME, cell-free; settings: read-out: PPB
[32] = Half life in human; type: ADME
Plasmodium falciparum [33] = assay: Antimalarial activity against Plasmodium falciparum infected in human assessed as parasite clearance time at 30 mg/kg, po; type: functional
Plasmodium vivax [34] = assay: Antimalarial activity against Plasmodium vivax infected in human assessed as median parasite clearance time at 30 mg/kg, po administered daily for 3 consecutive day and measured on day 5; type: functional
Plasmodium falciparum [35] = assay: Antimalarial activity against Plasmodium falciparum infected in human assessed as median clearance time at 30 mg/kg, po administered daily for 3 consecutive day and measured on day 5; type: functional
Plasmodium vivax [36] = assay: Antimalarial activity against Plasmodium vivax infected in human assessed as parasite clearance time at 30 mg/kg, po administered daily for 3 consecutive day and measured on day 5; type: functional
in vivo [37] = settings: mouse, po, 24.6 mg/kg
Description: Half life in mouse at 24.6 mg/kg, po and measured up to 24 hrs by LC/MS analysis

in vivo [38] = settings: rat, po, 23.7 mg/kg
Description: Half life in rat at 23.7 mg/kg, po and measured up to 24 hrs by LC/MS analysis

[39] = AUC (0 to 24 hrs) in human at 300 mg, po by LC-MS/MS analysis; settings: in vivo
[40] = Cmax in human at 150 mg, po for 3 days and measured on day 1 by LC-MS/MS analysis; settings: in vivo
[41] = AUC (0 to 24 hrs) in human at 150 mg, po for 3 days and measured on day 3 by LC-MS/MS analysis; settings: in vivo
[42] = Apparent clearance in human at 300 mg, po and measured up to 96 to 144 hrs by LC-MS/MS analysis; settings: in vivo, read-out: CL(app) (converted)

C[C@H]1Cc2c([nH]c3cc(Cl)c(F)cc23)[C@@]2(N1)C(=O)Nc1ccc(Cl)cc12 [CIPARGAMIN]
Tmax [1]: 8 h
EC50 (Plasmodium falciparum [2]): 0.5 to 1.4 nM
bioavailability [3]: 100%
AUC(0-inf) [4]: 524 µM·h
bioavailability [5]: 100%
EC50 (Plasmodium falciparum [6]): 0.5 to 1.4 nM
EC50 (Plasmodium falciparum [7]): 0.5 to 1.4 nM
EC50 (Plasmodium falciparum [8]): 0.5 to 1.4 nM
EC50 (Plasmodium falciparum [9]): 0.5 to 1.4 nM
EC50 (Plasmodium falciparum [10]): 0.5 to 1.4 nM
EC50 (Plasmodium falciparum [11]): 0.5 to 1.4 nM
EC50 (Plasmodium falciparum [12]): 0.5 to 1.4 nM
Activity (Plasmodium berghei [13]): 99%
Activity (Plasmodium berghei [14]): 50%
Activity (Plasmodium berghei [15]): 90%
Activity (Plasmodium berghei [16]): 100%
MSD (Plasmodium berghei [17]): 24.1 days
clearance [18]: 4.2 mL/min/kg
clearance [19]: 3.35 mL/min/kg
Vd [20]: 3.18 L/kg
half-life [21]: 492 min
half-life [22]: 654 min
Cmax [23]: 868 ng/mL
Tmax [24]: 5.3 h
Tmax [25]: 1.7 h
bioavailability [26]: 85%
bioavailability [27]: 68%
CC50 at 96 h [28]: > 10 µM
IC50 [29]: ≥ 30 µM
Stability [30]: 75%
fraction unbound [31]: < 0.003
half-life [32]: 1980 min
Time (Plasmodium falciparum [33]): 10 h
Time (Plasmodium vivax [34]): 12 h
Time (Plasmodium falciparum [35]): 16 h
Time (Plasmodium vivax [36]): 30 h
half-life at 24 h (in vivo [37]): 600 min
half-life at 24 h (in vivo [38]): 1660 min
AUC(0-t) at 24 h [39]: 36000 ng·h/mL
Cmax [40]: 1170 ng/mL
AUC at 24 h [41]: 29400 ng·h/mL
CL/F [42]: 91.7 mL/min
